Measured values taken from patent US20090105562A1, “SYSTEM AND METHODS FOR SCREENING OR ANALYZING TARGETS” (TAIPEI VETERANS GENERAL HOSPITAL, priority 2007, published 2009).

Assays:
Format in all cases: cell-based, rat
LPS-treated NSCs [1] = assay: Cell survival rate of LPS-treated NSCs
Method: (§1) IM was purchased from Sigma Chem. Co., St Louis, Mo., USA. NSCs were seeded on 24-well plates at a density of 2×10^4 cells/well in medium, followed by methyl thiazol tetrazolium assay (MTT assay) (Sigma-Aldrich Co., St Louis, Mo., USA) for cell viability. NSCs were incubated with 0.25 mg/ml MTT for 4 hours at 37° C. and the reaction was terminated by the addition of 100% isopropanol. The amount of MTT fromazon product was determined using a microplate reader and the absorbance was measured at 560 nm (SpectraMax 250, Molecular Devices, Sunnyvale, Calif., USA). NSCs were exposed to 0, 1, 2, 5, 10, 20, 30, 40, 50, 100, 200, and 300 μM of IM for 1, 3, 5, and 7 days, respectively. The activities of caspases 8 and 3 (Medical and Biological Laboratories Co., Ltd., Nagoya, Japan), and the concentration of IL-6, IL-1 and TNF-α (Pharmingen, San Diego, Calif., USA) were determined by ELISA kits and quantified by reading at 490 nm (MRX; Dynatech Laboratories, Chantilly, Va., USA). Each individual sample was analyzed in triplicate.
Double-stranded, short interfering RNA (siRNA) of BDNF and Bcl-2 were chemically synthesized by Ambion Inc., Austin, Tex., USA). The sense and antisense sequences of BDNF were designed as follows: Sense: […]tt; Antisense: AGCTTAAAAAGAG CTGtt, starting from nucleotide 137 of the Bcl-2 sequence (accession number L14680). The sense and antisense sequences of Bcl-2 were designed as follows: Sense: GCGCUGGAUAUAACUUCUUtt; Antisense: AAGAAGUUAUAUC CAGCGCtt, starting from nucleotide 137 of the Bcl-2 sequence (accession number L14680). In this test, the siRNA control used was siRNA-Cy3 (QIAGEN; sense sequence: UUCUCCGAACGUGU CACGUdTdT-3′-Cy3 and the complement 5′-ACGUGACACGUUCGGAGAAdTdT-3′-Cy3) as an irrelevant control. The transfection of siRNA was performed using Lipofectamine 2000 (Invitrogen, Carlsbad, Calif., USA) according to the manufacturer's instructions. In brief, cells were harvested with 0.25% trypsin, 1 mM ethylenediaminetetraacetic acid (EDTA) in phosphate buffered saline (PBS) without Ca^2+ and Mg^2+, and plated in six-well plates at 10^5 per cm^2. […]

LPS-treated NSCs [2] = assay: ELISA of IL-1β, IL-6 and TNF-α in LPS-treated NSCs
Method: as §1
(§2) Double-stranded, short interfering RNA (siRNA) of BDNF and Bcl-2 were chemically synthesized by Ambion Inc., Austin, Tex., USA). The sense and antisense sequences of BDNF were designed as follows: Sense: […]tt; Antisense: AGCTTAAAAAGAG CTGtt, starting from nucleotide 137 of the Bcl-2 sequence (accession number L14680). The sense and antisense sequences of Bcl-2 were designed as follows: Sense: GCGCUGGAUAUAACUUCUUtt; Antisense: AAGAAGUUAUAUC CAGCGCtt, starting from nucleotide 137 of the Bcl-2 sequence (accession number L14680). In this test, the siRNA control used was siRNA-Cy3 (QIAGEN; sense sequence: UUCUCCGAACGUGU CACGUdTdT-3′-Cy3 and the complement 5′-ACGUGACACGUUCGGAGAAdTdT-3′-Cy3) as an irrelevant control. The transfection of siRNA was performed using Lipofectamine 2000 (Invitrogen, Carlsbad, Calif., USA) according to the manufacturer's instructions. In brief, cells were harvested with 0.25% trypsin, 1 mM ethylenediaminetetraacetic acid (EDTA) in phosphate buffered saline (PBS) without Ca^2+ and Mg^2+, and plated in six-well plates at 10^5 per cm^2. Then 3.5 μl siRNA (100 μM solution) was mixed with 125 μl serum-free culture medium for 5 minutes at room temperature. During this incubation period, 5 μl of Lipofectamine 2000 was diluted in 125 μl serum-free culture medium. These two mixtures were combined, mixed gently, and incubated for 20 minutes at room temperature for complex formation. This 250 μl of siRNA-Lipofectamine mixture was then added into the cells in a final volume of 2.5 ml per well. The transfected cells were cultured and fed daily with fresh medium until they were assayed.

NSCs = assay: Triple-staining immunofluorescent assay of NSC differentiation into serotoninergic neurons
Method: All animals used were treated in accordance with the Animal Care and Use Committee guideline at Taipei Veterans General Hospital. The protocol of the present study was also approved by the committee. Adult Sprague-Dawley (SD) rats (8 weeks old, 250 g) were anesthetized with intraperitoneal phenobarbital (Sigma, USA), and the location of their brains was mapped. Then, the brain was surgically separated from the hippocampus region. In brief, tissues from the hippocampus of adult rats were dissociated and incubated in Hank's balanced salt solution (HBSS) containing collagenase (78 units/ml) and hyaluronidase (38 units/ml) for 10 minutes at 37° C. The tissues were then mechanically dissected and placed in a trypsin solution (1.33 mg/ml) at 37° C. for another 10 minutes. Dissociated cells were then centrifuged at […] for 5 minutes. Then the enzyme solution was removed and replaced with serum-free culture media composed of Dulbecco Modified Eagle Medium (DMEM) and F-12 nutrient mixture (1:1) including insulin (25 μg/mL), transferrin (100 μg/mL), progesterone (20 nM), putrescine (60 μM), sodium selenite (30 nM), human recombinant epidermal growth factor (EGF) 20 ng/mL, and fibroblast growth factor-basic (bFGF) (20 ng/mL) (R&D Systems, Minneapolis, Minn., USA). Viable cells were counted by trypan blue exclusion and plated as 5000 cells/200 μL per well in 96-well plates (Corning Inc, Acton, Mass., USA) with no substrate pretreatment. The IM was purchased from Sigma Chem. Co., St Louis, Mo., USA. The 0.1% dimethyl sulfoxide (DMSO) (Sigma Chem. Co., St Louis, Mo., USA) was used as a vehicle control in all procedures and studies. For differentiation protocol, the neurosphere NSCs were plated on poly-L-ornithine-coated (15 μg/mL) glass coverslips in individual wells of 24-well plates (1.0 mL/well) in DMEM/F-12 medium containing 2% fetal calf serum (FCS) (Gibcol-BRL, Gaitherburg, Md., USA) and withdrawing EGF and bFGF At the time of NSCs seeding, vehicle control or IM treatment was concurrently added.
An avidin-biotin complex method was used for the immunohistochemical staining in the differentiated NSCs. Following washes with the 3% hydrogen peroxide, sodium azide and antigens were retrieved using a microwave. […] Immunoreactive signals were detected with a mixture of biotinylated rabbit anti-mouse IgG and Fluoresave (Calbiochem, La Jolla, Calif., USA) under confocal microscopy (Olympus, FV300). Each individual sample was analyzed in triplicate. […] The percentage of TUNEL-positive cells was measured by the average of 6 different areas as compared to the total cell number in the same section slide (under a×200 power field of a light microscope).

LPS-treated NSCs [3] = assay: LPS-induced apoptotic activity in NSCs, caspase 8 and 3 ELISA
Method: as §1, §2

[4] = vs only LPS-treated NSCs, IM 3 μM, p<0.05
[5] = Day 7 culture of IM-treated vs non IM-treated NSCs, p<0.05
[6] = LPS (100 ng/ml) exposure, Day 7 IM-treated vs without IM, p<0.05
[7] = agent added to LPS-treated NSCs with IM, U0126 40 μM
[8] = agent added, Day 7 culture of IM-treated NSCs

Row | apoptotic activity of caspase 3 (LPS-treated NSCs [3]; [6]) | apoptotic activity of caspase 8 (LPS-treated NSCs [3]; [6]) | Compound | cell survival rate in LPS-treated NSCs (LPS-treated NSCs [1]; vs only LPS-treated NSCs, LPS 100 ng/ml) | IL-1β production in LPS-treated NSCs (LPS-treated NSCs [2]; [4]) | IL-6 production in LPS-treated NSCs (LPS-treated NSCs [2]; [4]) | TNF-α production in LPS-treated NSCs (LPS-treated NSCs [2]; [4]) | percentage of MAP-2-positive cells (NSCs; [5]) | percentage of serotonin (5-HT)-positive cells (NSCs; [5]) | cell viability in LPS-treated NSCs with IM (LPS-treated NSCs [1]; after added treatment with the agent) | level of IL-1β in LPS-treated NSCs with IM (LPS-treated NSCs [2]; [7]) | level of IL-6 in LPS-treated NSCs with IM (LPS-treated NSCs [2]; [7]) | level of TNF-α in LPS-treated NSCs with IM (LPS-treated NSCs [2]; [7]) | percentage of MAP-2-positive cells in IM-treated NSCs (NSCs; [8]) | percentage of serotonin (5-HT)-positive cells in IM-treated NSCs (NSCs; [8]) | apoptotic activities (caspase 8, caspase 3 and TUNEL assays) in LPS- and IM-treated NSCs (LPS-treated NSCs [3]; agent added to LPS- and IM-treated NSCs, U0126 40 μM)
1 | significantly decreased | significantly decreased | CN(C)CCCN1c2ccccc2CCc2ccccc21 [IM, imipramine] | significantly increases | effectively reduces | effectively reduces | effectively reduces | significantly increased | significantly increased | – | – | – | – | – | – | –
2 | – | – | N#CC(=C(/N)Sc1ccccc1N)/C(C#N)=C(\N)Sc1ccccc1N [U0126] | – | – | – | – | – | – | dramatically decreased | significantly increased | significantly increased | significantly increased | significantly decrease | significantly decrease | significantly enhanced
